For 7 molecules, Ki, Activity and pKi results are on record in ChEMBL document CHEMBL5625223 (Eur J Med Chem, 2023).

Test [1] addresses T1, 5-hydroxytryptamine receptor 2A (Homo sapiens, UniProt P28223). Put plainly: Displacement of [3H]ketanserin from human 5-HT2A receptor expressed in HEK293 cells at 10 uM incubated for 1 hr. It is filed as cell-based. For orientation: Loss of bound radioactivity is the signal in a displacement assay; it reports binding, not function.
For test [2], the target named is T2, Adenosine receptor A1 (Homo sapiens, UniProt P30542).
T2 sequence (P30542 whole entry): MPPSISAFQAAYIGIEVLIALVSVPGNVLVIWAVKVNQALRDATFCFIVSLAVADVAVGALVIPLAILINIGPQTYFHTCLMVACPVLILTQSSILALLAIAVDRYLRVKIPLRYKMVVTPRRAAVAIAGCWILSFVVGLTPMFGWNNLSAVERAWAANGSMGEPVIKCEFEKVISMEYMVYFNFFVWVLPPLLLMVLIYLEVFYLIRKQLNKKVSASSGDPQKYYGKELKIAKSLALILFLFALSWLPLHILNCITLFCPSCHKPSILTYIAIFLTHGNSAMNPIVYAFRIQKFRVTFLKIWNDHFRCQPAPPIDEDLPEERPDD
Put plainly: Displacement of […] from human A1AR expressed in Flp-In-T-REx-293 cells assessed as inhibition constant. It is filed as cell-based.

Test [3] addresses Adenosine receptor A2a (Homo sapiens) (UniProt P29274). Put plainly: Displacement of […] from human A2AR expressed in HEK cells at 10 uM relative to control. It is filed as cell-based.
In test [4] the target is T3, Adenosine receptor A3 (Homo sapiens, UniProt P0DMS8).
T3 sequence (P0DMS8 whole entry): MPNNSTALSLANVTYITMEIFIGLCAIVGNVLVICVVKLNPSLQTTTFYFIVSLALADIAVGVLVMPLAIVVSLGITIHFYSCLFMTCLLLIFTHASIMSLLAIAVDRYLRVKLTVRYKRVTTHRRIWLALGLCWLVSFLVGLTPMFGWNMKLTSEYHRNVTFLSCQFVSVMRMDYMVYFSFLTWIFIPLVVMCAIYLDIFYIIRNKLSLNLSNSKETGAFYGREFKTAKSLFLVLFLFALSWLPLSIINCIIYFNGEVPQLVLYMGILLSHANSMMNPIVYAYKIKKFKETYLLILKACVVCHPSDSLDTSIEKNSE
Put plainly: Displacement of […] from human A3AR expressed in HEK cells assessed as inhibition constant. It is filed as cell-based.

The target of test [5] is 5-hydroxytryptamine receptor 1D (Homo sapiens, UniProt P28221). Put plainly: Binding affinity to 5HT1D receptor (unknown origin) assessed as inhibition constant.
The target in test [6] is T4, Alpha-2C adrenergic receptor (Homo sapiens, UniProt P18825).
T4 sequence (P18825 whole entry): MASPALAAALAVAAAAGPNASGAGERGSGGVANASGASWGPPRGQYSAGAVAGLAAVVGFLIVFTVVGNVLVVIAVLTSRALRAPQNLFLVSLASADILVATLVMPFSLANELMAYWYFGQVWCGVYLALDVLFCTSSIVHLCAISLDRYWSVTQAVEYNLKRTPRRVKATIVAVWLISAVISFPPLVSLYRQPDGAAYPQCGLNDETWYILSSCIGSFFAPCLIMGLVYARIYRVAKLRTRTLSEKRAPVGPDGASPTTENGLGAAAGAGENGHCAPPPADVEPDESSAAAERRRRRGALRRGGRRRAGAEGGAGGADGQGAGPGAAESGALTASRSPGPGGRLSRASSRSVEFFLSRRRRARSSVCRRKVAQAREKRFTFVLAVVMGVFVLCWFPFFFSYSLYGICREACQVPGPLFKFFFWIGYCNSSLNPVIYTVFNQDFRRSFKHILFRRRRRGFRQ
Put plainly: Binding affinity to alpha2C receptor (unknown origin) assessed as inhibition constant.

The target in test [7] is Mu-type opioid receptor (Homo sapiens, UniProt P35372). Put plainly: Binding affinity to MOR (unknown origin) assessed as inhibition constant.
For test [8], the target named is T1, 5-hydroxytryptamine receptor 2A. Put plainly: Displacement of [3H]ketanserin from human 5-HT2A receptor expressed in HEK293 cells at 10 uM incubated for 1 hr relative to control. It is filed as cell-based.
Test [9] concerns the target Sodium-dependent dopamine transporter (Homo sapiens, UniProt Q01959). Put plainly: Binding affinity to DAT (unknown origin) assessed as inhibition constant.
Test [10] has as its target T1, 5-hydroxytryptamine receptor 2A. Put plainly: Binding affinity to 5HT2A receptor (unknown origin) at 10 uM relative to control.
For test [11], the target named is T5, 5-hydroxytryptamine receptor 2B (Homo sapiens, UniProt P41595). Put plainly: Binding affinity to 5HT2B receptor (unknown origin) assessed as inhibition constant.
Test [12] deals with T6, 5-hydroxytryptamine receptor 2C (Homo sapiens) (UniProt P28335).
T6 sequence (whole entry): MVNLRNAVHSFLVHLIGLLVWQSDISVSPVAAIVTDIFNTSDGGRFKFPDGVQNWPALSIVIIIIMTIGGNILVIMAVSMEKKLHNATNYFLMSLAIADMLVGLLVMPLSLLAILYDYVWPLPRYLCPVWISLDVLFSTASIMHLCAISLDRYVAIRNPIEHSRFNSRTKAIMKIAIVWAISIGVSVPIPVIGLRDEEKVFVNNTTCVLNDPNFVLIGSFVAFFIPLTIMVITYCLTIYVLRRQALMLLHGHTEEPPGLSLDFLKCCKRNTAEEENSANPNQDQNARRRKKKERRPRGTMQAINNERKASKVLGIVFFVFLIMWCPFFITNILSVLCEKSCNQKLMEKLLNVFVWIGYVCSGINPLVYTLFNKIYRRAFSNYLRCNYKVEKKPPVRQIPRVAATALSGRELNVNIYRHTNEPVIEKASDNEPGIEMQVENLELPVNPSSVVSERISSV
Put plainly: Binding affinity to 5HT2C receptor (unknown origin) at 10 uM relative to control.

Test [13] has as its target T7, 5-hydroxytryptamine receptor 2C (Homo sapiens, UniProt P28335).
T7 sequence (P28335 whole entry): T6 sequence (whole entry)
Put plainly: Binding affinity to 5HT2C receptor (unknown origin) assessed as inhibition constant.

Test [14] concerns the target T8, Adenosine receptor A1 (Homo sapiens) (UniProt P30542).
T8 sequence (whole entry): T2 sequence (P30542 whole entry)
Put plainly: Binding affinity to A1AR (unknown origin) at 10 uM relative to control. To be noted: filed as agonist.

Test [15] has as its target T5, 5-hydroxytryptamine receptor 2B. Put plainly: Displacement of [3H]-LSD from human 5-HT2B receptor expressed in HEK cells assessed as inhibition constant incubated for 1 hr. It is filed as cell-based.
Test [16] concerns the target T6, 5-hydroxytryptamine receptor 2C (Homo sapiens). Put plainly: Displacement of [3H]-Mesulergine from human 5-HT2C expressed in Flp-In-T-REx-293 cells at 10 uM incubated for 1 hr relative to control. It is filed as cell-based. The note with it: filed as antagonist.
In test [17] the target is T9, Alpha-2B adrenergic receptor (Homo sapiens, UniProt P18089).
T9 sequence (P18089 whole entry): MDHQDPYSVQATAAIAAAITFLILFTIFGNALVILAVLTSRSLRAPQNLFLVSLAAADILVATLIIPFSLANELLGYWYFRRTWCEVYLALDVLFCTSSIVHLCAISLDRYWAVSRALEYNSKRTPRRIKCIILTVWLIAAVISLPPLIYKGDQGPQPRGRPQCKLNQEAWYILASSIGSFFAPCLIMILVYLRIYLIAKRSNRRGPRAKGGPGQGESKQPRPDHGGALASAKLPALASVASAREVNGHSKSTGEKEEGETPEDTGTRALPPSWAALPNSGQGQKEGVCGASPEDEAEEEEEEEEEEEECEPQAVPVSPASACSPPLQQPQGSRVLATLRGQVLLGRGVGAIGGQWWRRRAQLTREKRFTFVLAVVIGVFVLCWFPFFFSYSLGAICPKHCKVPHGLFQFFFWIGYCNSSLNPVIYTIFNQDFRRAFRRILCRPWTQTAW
Put plainly: Binding affinity to alpha2B receptor (unknown origin) assessed as inhibition constant.

Test [18] concerns the target T7, 5-hydroxytryptamine receptor 2C. Put plainly: Displacement of [3H]-Mesulergine from human 5-HT2C expressed in Flp-In-T-REx-293 cells assessed as inhibition constant incubated for 1 hr. It is filed as cell-based. To be noted: read-out: Ki.
In test [19] the target is T10, Adenosine receptor A3 (Homo sapiens) (UniProt P0DMS8).
T10 sequence (whole entry): T3 sequence (P0DMS8 whole entry)
Put plainly: Displacement of […] from human A3AR expressed in HEK cells at 10 uM relative to control. It is filed as cell-based. To be noted: filed as agonist.

Test [20] concerns the target Beta-3 adrenergic receptor (Homo sapiens, UniProt P13945). Put plainly: Binding affinity to beta3 adrenergic receptor (unknown origin) assessed as inhibition constant.

T1 sequence (P28223 whole entry): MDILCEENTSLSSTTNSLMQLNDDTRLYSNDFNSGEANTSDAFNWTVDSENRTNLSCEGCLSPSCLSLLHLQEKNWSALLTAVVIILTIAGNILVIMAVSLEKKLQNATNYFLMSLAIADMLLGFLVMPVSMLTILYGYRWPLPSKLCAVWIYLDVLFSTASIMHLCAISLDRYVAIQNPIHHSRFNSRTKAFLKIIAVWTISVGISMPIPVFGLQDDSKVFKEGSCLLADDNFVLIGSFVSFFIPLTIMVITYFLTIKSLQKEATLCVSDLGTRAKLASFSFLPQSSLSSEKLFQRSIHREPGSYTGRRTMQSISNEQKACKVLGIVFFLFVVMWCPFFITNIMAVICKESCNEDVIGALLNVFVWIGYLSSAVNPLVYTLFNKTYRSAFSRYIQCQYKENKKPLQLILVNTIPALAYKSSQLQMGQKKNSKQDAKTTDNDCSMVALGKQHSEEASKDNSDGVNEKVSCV
T5 sequence (P41595 whole entry): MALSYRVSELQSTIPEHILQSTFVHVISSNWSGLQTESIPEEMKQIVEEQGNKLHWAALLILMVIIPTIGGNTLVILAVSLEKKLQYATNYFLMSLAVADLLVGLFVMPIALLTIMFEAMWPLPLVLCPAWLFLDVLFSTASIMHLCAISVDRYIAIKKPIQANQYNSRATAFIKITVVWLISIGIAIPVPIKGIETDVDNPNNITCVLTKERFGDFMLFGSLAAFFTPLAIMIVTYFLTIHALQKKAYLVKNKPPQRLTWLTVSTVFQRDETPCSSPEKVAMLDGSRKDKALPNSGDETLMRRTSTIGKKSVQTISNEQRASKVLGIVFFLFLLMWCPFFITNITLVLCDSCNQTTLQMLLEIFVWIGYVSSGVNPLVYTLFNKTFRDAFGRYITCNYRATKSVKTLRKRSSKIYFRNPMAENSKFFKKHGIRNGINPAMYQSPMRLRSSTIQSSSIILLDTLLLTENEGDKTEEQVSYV
Adenosine receptor A2a (Homo sapiens), sequence (P29274 whole entry): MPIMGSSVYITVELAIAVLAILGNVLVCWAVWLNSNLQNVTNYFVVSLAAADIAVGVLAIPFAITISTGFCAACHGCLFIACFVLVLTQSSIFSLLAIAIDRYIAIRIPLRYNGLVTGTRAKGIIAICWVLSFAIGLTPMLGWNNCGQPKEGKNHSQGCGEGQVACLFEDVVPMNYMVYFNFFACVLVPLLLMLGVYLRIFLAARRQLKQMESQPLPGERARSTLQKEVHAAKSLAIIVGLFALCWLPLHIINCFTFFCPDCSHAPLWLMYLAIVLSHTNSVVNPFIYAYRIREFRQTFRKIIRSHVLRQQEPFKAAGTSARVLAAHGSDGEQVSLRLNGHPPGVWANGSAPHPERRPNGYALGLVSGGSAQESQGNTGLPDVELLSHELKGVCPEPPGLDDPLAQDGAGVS
Sodium-dependent dopamine transporter, sequence (Q01959 whole entry): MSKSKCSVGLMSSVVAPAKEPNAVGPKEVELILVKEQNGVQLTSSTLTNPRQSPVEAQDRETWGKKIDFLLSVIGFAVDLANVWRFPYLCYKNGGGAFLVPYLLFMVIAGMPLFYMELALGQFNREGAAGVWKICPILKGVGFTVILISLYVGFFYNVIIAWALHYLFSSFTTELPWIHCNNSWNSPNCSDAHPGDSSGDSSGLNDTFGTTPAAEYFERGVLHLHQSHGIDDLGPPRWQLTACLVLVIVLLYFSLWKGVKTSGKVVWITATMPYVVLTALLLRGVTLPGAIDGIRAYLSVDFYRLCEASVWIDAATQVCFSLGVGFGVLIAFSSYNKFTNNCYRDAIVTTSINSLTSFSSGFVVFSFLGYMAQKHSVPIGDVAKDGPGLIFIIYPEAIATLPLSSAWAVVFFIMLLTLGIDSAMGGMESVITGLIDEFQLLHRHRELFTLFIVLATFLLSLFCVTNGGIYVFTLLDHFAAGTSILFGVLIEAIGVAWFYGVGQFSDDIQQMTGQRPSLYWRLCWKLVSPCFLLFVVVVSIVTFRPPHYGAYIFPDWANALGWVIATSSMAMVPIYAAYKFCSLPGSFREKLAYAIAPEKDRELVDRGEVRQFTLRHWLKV
Mu-type opioid receptor, sequence (P35372 whole entry): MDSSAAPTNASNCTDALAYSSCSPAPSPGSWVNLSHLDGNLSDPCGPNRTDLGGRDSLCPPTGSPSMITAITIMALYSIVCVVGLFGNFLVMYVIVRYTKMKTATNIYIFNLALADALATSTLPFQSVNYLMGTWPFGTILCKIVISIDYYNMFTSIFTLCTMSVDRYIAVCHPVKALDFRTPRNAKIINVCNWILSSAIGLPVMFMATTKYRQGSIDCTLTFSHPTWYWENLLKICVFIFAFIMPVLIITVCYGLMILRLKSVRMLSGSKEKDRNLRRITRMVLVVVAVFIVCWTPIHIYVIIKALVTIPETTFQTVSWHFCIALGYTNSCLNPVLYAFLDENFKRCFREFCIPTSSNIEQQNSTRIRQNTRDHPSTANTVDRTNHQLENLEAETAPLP
Beta-3 adrenergic receptor, sequence (P13945 whole entry): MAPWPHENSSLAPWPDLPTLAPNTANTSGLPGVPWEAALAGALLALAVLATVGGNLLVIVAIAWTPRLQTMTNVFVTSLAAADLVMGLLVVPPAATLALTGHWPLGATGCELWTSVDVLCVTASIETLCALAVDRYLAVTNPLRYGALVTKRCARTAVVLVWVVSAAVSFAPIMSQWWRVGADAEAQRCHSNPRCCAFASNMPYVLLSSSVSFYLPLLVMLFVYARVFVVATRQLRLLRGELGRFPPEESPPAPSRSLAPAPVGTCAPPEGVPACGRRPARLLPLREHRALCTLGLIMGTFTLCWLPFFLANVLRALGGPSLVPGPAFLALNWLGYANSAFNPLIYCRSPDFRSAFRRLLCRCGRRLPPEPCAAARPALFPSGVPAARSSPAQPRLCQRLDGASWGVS
5-hydroxytryptamine receptor 1D, sequence (P28221 whole entry): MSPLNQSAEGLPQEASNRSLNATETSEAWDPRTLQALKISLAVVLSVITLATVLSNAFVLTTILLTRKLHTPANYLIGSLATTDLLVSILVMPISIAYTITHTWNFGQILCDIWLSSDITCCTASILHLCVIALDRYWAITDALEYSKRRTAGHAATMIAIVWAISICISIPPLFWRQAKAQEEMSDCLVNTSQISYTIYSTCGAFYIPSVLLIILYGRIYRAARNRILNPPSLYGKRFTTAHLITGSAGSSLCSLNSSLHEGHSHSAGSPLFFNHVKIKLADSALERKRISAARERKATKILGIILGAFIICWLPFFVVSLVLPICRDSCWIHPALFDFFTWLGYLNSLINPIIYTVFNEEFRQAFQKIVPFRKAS

With `O[C@H]1[C@H](n2cnc3c(NC(C4CCCC4)C4CCCC4)nc(Cl)nc32)[C@H]2C[C@@]2(CCl)[C@H]1O`, the Ki in test [1] came to 6470 nM; in [2] it was 529 nM; in test [4], 8260 nM; in [5], 6500 nM; in [6] it was 2500 nM; in test [7], 5700 nM. The Activity in [3] is 36%.

For the molecule `OC[C@@]12C[C@@H]1[C@@H](n1cnc3c(NC(C4CCCC4)C4CCCC4)nc(Cl)nc31)[C@H](O)[C@@H]2O`, the Activity is 1% in test [8] and -12% in test [3]. In addition, the Ki in [9] was 3900 nM.

As to `O[C@@H]1[C@H](O)[C@@H]2C[C@@H]2[C@H]1n1ccc2c(NC(C3CC3)C3CC3)nc(I)nc21`, the Activity in [10] came out at 3%. Moreover, in [11], the Ki was found to be 1300 nM and the pKi stood at 5.88. The Activity in test [12] amounted to 30%.

In the case of `O[C@H]1[C@H](n2cnc3c(NC(C4CCC4)C4CCC4)nc(Cl)nc32)[C@H]2C[C@@]2(CSc2ccccc2F)[C@H]1O`, the Activity in test [10] is 21%; in test [14], 45%. Further, the Ki in [11] came to 601 nM; in test [13], 1250 nM.

For the molecule `CSC[C@@]12C[C@@H]1[C@@H](n1cnc3c(NC(C4CCCC4)C4CCCC4)nc(SC)nc31)[C@H](O)[C@@H]2O`, the Ki in test [1] was found to be 9300 nM; in test [15], 222 nM; in [4] it was 6620 nM; in [17] it was 1200 nM. Besides, the figures for the Activity in test [16] and in test [3] were 49% and -60%, respectively.

Consider `O[C@H]1[C@H](n2cnc3c(NC(C4CCCC4)C4CCCC4)nc(Cl)nc32)[C@H]2C[C@@]2(CF)[C@H]1O`, for which the values for the Activity in test [8] and in test [3] were 36% and 21%, respectively. Further, the Ki in test [18] was determined as 580 nM; in [2], 1620 nM; in test [4], 7200 nM; in test [9], 7900 nM.

For `COc1ccc(SC[C@@]23C[C@@H]2[C@@H](n2cnc4c(NC(C5CCCC5)C5CCCC5)nc(Cl)nc42)[C@H](O)[C@@H]3O)cc1OC`, the values for the Activity in [8], in test [3] and in [19] were 25%, 19% and 78%, respectively. For the same molecule, the figures for the inhibition constant Ki in test [15], in [18] and in test [20] were 256 nM, 368 nM and 2100 nM, respectively.

As usually defined, the Ki is the dissociation constant of the complex between target and ligand, obtained from inhibition or displacement. Usually pKi stands for −log10 of the Ki, conventionally taken in molar units.
